Patent US6087375A, “Methods of treating or preventing thromboses” (priority 1999, dated 2000)

How the values were obtained:
Format in all cases: binding
[1] = tested on: rabbit erythrocyte membrane and cytosolic proteins; test: Immunoblotting and ELISA of rabbit erythrocyte ghost and cytosol fractions after conjugation
Protocol: Material and Methods: Rabbit erythrocytes were conjugated with the Argatroban-C6 NHS ester compound (compound YL-015-35). To do so, rabbit erythrocytes were isolated from fresh, citrated blood. In brief, an aliquot of blood was centrifuged for 5 minutes at 1800 rpm (Sorvall RC-5B, SH-3000 rotor). The buffy coat was pipetted off the top layer of the cell pellet and the remaining erythrocytes were washed four times with PBS, pH 7.4. Before the last wash, an aliquot of cells was removed for counting. The washed erythrocytes were resuspended at a density of 1×10^9 cells/mL. The total volume of cells labeled per sample was 3 mL. […] After the labeling reaction, the cells were centrifuged 4 minutes at 1800 rpm and the supernatant was discarded. The cells were resuspended in 10 ml of 0.5% DMSO/PBS and pelleted. The cells were washed one more time with 10 ml of PBS.
To quench any remaining reactive esters, the cells were then resuspended in 6 mg/mL BSA/PBS (Sigma, A-2934, lot 93HO291) and gently agitated at room temperature for 30 minutes. After quenching, the cells were washed five times with PBS. Cell yields were determined by cell counting.
After conjugation, the cells were hypotonically lysed and the ensuing membrane (ghost) and cytosol fractions were assayed by immunoblotting and ELISA. Specifically, conjugated erythrocyte pellets were chilled on ice for 5 minutes. Cells were then lysed on ice with 12 ml of ice-cold 5 mM phosphate buffer, pH 8.0 (PB) containing 1 mM Pefabloc and 40 μM leupeptin. Lysates were briefly vortexed and then centrifuged for 20 minutes at 4° C. at 15,000 rpm (SS-34, Sorvall RC-5B). The supernatant (hemolysate) was pipetted off the pellet, labeled and stored at 4° C. The pellets (ghosts) were washed four times with 12 ml of cold PBS and centrifuged as above. The protein content of the ghosts and hemolysates was determined by using the Micro BCA kit (Pierce; catalog no. 23231). Cell fractions were stored at -80° C.
Samples were then solubilized in 2×reducing cocktail (5% SDS, 50% glycerol, 0.5 M 2-mercaptoethanol in 0.25 M Tris-HCI, pH 6.8). […]

[2] = biological target: rabbit serum albumin (RSA) (Oryctolagus cuniculus, UniProt P49065); test: Mass spectrometric analysis of conjugation to RSA (HPLC/ESIMS, MALDI-TOFMS); conditions: for average argatroban derivative molecules added per RSA molecule / range of argatroban derivative molecules added per RSA molecule: MALDI-MS
Protocol: (§1) All samples were analyzed using a high performance liquid chromatograph (HPLC) coupled in-line to an electrospray ionization (ESI) mass spectrometer (MS) which is termed HPLC/ESIMS. Some samples were also analyzed using a matrix-assisted laser desorption ionization (MALDI) time-of-flight (TOF) mass spectrometer which is termed (MALDI-TOFMS).
(§2) Samples for HPLC/ESIMS were either prepared as duplicate reaction samples or were part of the same reaction samples which were used in the ELISA assays described below. These samples were injected directly only the HPLC/ESIMS without any manipulation other than dilution with water, where the PBS, DMSO, and unreacted derivative molecules are separated from the protein-argatroban derivative molecule conjugate. Samples for MALDI-MS were first HPLC-purified and mixed 1:1 directly on the stainless steel analysis plate with a matrix of 10 mg/ml sinnapinic acid in 50% acetonitrile/50% water. The mixture was then dried with a gentle flow of air to allow for crystallization and inserted into the instrument for laser ionization.
(§3) The HPLC is a Hewlett Packard 1090 Series II liquid chromatogram with a diode array detector. The column used for separation is a Brownlee aquapore OD-300 reversed phase C18 column, 1 mm×10 cm, 300 Å pore size, 7 μm particle diameter. The mass spectrometer to which the HPLC is connected using fused Silica capillary tubing is a Sciex API-300 triple quadrupole mass spectrometer with an ionspray source to allow for atmospheric pressure ionization of a liquid flowing continuously into the instrument. The MALDI-TOFMS is a Perceptive Biosystems Voyager Elite DE instrument run in the linear mode.
The conjugate was prepared according to the following protocol. […] Sham samples consist of the RSA incubated for the same length of time at RT in 2% DMSO in PBS. Each of the samples was then concentrated to a final volume of 1.5 mL using Amicon Centricon 30 filtration/concentration devices. The concentrated samples were then desalted on Pierce's 5 ML Kwiksep excellulose plastic desalting columns. The excluded volumes containing RSA or argatroban-C6-RSA were then subjected to BCA microprotein estimation and lyophilization. In addition, these samples were analyzed by LC/MS, sandwich ELISA assays (described above) to measure thrombin binding and immunoblotting.

[3] = biological target: human serum albumin (HSA) (Homo sapiens, UniProt P02768); test: Mass spectrometric analysis of conjugation to HSA (HPLC/ESIMS); conditions: HSA 5 μM, 100 μM ester, 1 hour, room temperature
Protocol: as §1, §2, §3

[4] = concentration study, 10 μM ester, RSA 4.5 μM, HPLC/ESIMS

Sequence of rabbit serum albumin (RSA) (P49065 25-608): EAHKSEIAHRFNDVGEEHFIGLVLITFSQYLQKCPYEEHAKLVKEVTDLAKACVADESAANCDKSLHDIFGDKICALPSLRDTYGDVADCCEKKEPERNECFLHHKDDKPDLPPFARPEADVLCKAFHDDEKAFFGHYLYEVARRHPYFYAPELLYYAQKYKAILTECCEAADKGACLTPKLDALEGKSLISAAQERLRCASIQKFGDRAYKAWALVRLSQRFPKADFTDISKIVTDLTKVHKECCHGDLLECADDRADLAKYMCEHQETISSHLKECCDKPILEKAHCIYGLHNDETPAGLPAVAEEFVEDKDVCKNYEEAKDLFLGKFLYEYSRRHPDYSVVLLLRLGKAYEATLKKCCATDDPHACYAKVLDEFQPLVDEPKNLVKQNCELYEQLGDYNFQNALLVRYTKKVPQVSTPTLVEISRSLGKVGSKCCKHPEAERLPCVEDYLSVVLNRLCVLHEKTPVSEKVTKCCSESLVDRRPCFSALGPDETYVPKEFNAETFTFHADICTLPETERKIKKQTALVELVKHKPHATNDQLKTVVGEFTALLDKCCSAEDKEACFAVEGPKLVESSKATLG
Sequence of human serum albumin (HSA) (P02768 25-609): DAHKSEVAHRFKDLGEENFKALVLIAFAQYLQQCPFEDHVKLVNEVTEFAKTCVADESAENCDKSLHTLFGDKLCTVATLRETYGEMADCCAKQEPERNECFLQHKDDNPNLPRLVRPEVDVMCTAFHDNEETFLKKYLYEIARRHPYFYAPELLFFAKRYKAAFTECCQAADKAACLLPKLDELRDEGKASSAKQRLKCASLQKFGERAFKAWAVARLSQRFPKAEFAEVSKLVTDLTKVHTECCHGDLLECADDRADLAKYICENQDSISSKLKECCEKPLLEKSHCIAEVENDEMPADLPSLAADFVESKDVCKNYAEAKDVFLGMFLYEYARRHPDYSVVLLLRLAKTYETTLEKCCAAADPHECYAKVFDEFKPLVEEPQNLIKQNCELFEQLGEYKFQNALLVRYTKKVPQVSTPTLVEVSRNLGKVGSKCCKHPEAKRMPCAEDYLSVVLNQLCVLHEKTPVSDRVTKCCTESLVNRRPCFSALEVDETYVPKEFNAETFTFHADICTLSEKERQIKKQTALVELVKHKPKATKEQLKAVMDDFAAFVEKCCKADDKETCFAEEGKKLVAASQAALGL

## CC1CNc2c(cccc2S(=O)(=O)NC(CCCN=C(N)N)C(=O)N2CCC(C)CC2C(=O)NCCCCCC(=O)ON2C(=O)CCC2=O)C1 (stereo not shown) [compound YL-015-35]
[1]; capture ELISA assay
  labeled proteins belonging to the glycophorin family: a portion of the thrombin inhibitor-labeled proteins belong to the glycophorin family of proteins
[1]; rabbit erythrocytes, cytosol fraction
  presence of derivatized argatroban molecules on cytosolic proteins: at the limit of detection
[1]; rabbit erythrocytes, immunoblotting
  covalent modification of erythrocyte membrane proteins: numerous erythrocyte membrane proteins were covalently modified
[2]; HPLC/ESIMS, RSA 4.5 μM, 100 μM ester, 1 hour, room temperature
  covalent addition of argatroban derivative molecules per RSA molecule: 1-8 argatroban derivative molecules per RSA molecule
[2]; HPLC/ESIMS, RSA 15 μM, 200 μM ester
  covalent addition of argatroban derivative molecules per RSA molecule: 1-9 argatroban derivative molecules per RSA molecule
[2]; HPLC/ESIMS, RSA 30 μM, 300 μM ester
  covalent addition of argatroban derivative molecules per RSA molecule: 1-9 argatroban derivative molecules per RSA molecule
[2]; RSA 15 μM, 200 μM ester
  average argatroban derivative molecules added per RSA molecule: 5.6 argatroban derivative molecules added per RSA molecule
  range of argatroban derivative molecules added per RSA molecule: 1-10 argatroban derivative molecules added per RSA molecule
[2]; RSA 30 μM, 300 μM ester
  average argatroban derivative molecules added per RSA molecule: 5.4 argatroban derivative molecules added per RSA molecule
  range of argatroban derivative molecules added per RSA molecule: 1-10 argatroban derivative molecules added per RSA molecule
[2]; concentration study, 1 μM ester, RSA 4.5 μM, HPLC/ESIMS
  argatroban derivative molecules added: no detectable argatroban derivative molecules
[2]; [4]
  argatroban derivative molecules added: 1 argatroban derivative molecule
  fraction of the RSA molecules to which 1 argatroban derivative molecule is added: ~ 50%
[2]; concentration study, 15 μM ester, RSA 4.5 μM
  major species of RSA molecules: majority of RSA molecules are +1
[2]; concentration study, 15 μM ester, RSA 4.5 μM, HPLC/ESIMS
  argatroban derivative molecules added per RSA molecule: 0-3 argatroban derivative molecules per RSA molecule
[2]; concentration study, 20 μM ester, RSA 4.5 μM
  major species of RSA molecules: majority of RSA molecules are +1 and +2
[2]; concentration study, 20 μM ester, RSA 4.5 μM, HPLC/ESIMS
  argatroban derivative molecules added per RSA molecule: 1-3 argatroban derivative molecules per RSA molecule
[2]; concentration study, 25 μM ester, RSA 4.5 μM
  major species of RSA molecules: majority of RSA molecules are +1 and +2
[2]; concentration study, 25 μM ester, RSA 4.5 μM, HPLC/ESIMS
  argatroban derivative molecules added per RSA molecule: 1-4 argatroban derivative molecules per RSA molecule
[2]; concentration study, 100 μM ester, RSA 4.5 μM
  major species of RSA molecules: no major species
[2]; concentration study, 100 μM ester, RSA 4.5 μM, HPLC/ESIMS
  argatroban derivative molecules added per RSA molecule: 2-10 argatroban derivative molecules per RSA molecule
[3]
  covalent addition of argatroban derivative molecules per HSA molecule: 1-8 argatroban derivative molecules per HSA molecule
